This note sets out measurements from ChEMBL document CHEMBL1795328, “Synthesis of novel triplet drugs with 1,3,5-trioxazatriquinane skeletons and their pharmacologies. 1: Synthesis of triplet drugs with morphinan skeletons” (Bioorg Med Chem Lett, 2011).

Experiment [1] can be described thus: Displacement of [3H]-NTI from delta opioid receptor in guinea pig forebrain homogenates. It counts as tissue-based, Cavia porcellus, Brain. In general terms: Displacement assays read how much labelled ligand stays bound in the presence of the test substance.
The target of experiment [2] is Kappa-type opioid receptor (Cavia porcellus, UniProt P41144). Kind of experiment: Displacement of [3H]-U69593 from kappa opioid receptor in guinea pig cerebellum homogenates. It counts as tissue-based.
The next experiment is filed under the species Cavia porcellus. Kind of experiment: Selectivity ratio of Ki for delta opioid receptor in guinea pig forebrain homogenates to Ki for mu opioid receptor in guinea pig forebrain homogenates. Type of experiment: tissue-based.
The target in another experiment is Mu-type opioid receptor (Cavia porcellus, UniProt P97266). The experiment in a line: Displacement of [3H]-DAMGO from mu opioid receptor in guinea pig forebrain homogenates. Type of experiment: tissue-based, Brain.
Experiment [3] concerns Mus musculus. The experiment in a line: Ratio of morphine ED50 to compound ED50 for antinociceptive activity in sc dosed mouse by acetic acid writhing test. It counts as functional. Background: An intraperitoneal irritant provokes the stretching counted in writhing tests.
Experiment [4] relates to Mus musculus. The experiment in a line: Antinociceptive activity in sc dosed mouse by acetic acid writhing test. It counts as functional.

The structures appear in SMILES notation.

Sequence of Mu-type opioid receptor (P97266 whole entry): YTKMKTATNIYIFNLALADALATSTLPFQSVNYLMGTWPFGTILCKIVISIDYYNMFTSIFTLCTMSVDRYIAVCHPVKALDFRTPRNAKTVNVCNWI
Sequence of Kappa-type opioid receptor (P41144 whole entry): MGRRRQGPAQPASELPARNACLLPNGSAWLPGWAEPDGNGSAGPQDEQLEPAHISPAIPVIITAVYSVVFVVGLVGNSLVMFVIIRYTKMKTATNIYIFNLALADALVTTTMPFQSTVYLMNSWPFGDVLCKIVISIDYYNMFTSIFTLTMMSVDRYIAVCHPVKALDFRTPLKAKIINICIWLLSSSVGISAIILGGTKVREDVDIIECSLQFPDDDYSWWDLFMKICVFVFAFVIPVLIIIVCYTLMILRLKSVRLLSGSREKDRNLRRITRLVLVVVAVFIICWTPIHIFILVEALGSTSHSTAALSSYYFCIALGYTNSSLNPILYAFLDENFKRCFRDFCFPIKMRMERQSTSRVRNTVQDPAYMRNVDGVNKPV

For `CN1CC[C@]23c4c5ccc(O)c4O[C@H]2[C@]2(CC[C@@]3(O)[C@H]1C5)O[C@@H]1N3[C@H]2O[C@]2(CC[C@@]4(O)[C@H]5Cc6ccc(O)c7c6[C@@]4(CCN5CC4CC4)[C@H]2O7)[C@@H]3O[C@]12CC[C@@]1(O)[C@H]3Cc4ccc(O)c5c4[C@@]1(CCN3C)[C@H]2O5`, the Ki in experiment [1] was 0.0235 µM; in experiment [2], 0.0109 µM; on Mu-type opioid receptor, 0.00185 µM. In the experiment listed under Cavia porcellus, the Ratio Ki is 12.7.

For `CN1CC[C@]23c4c5ccc(O)c4O[C@H]2[C@]2(CC[C@@]3(O)[C@H]1C5)O[C@@H]1N3[C@H]2O[C@]2(CC[C@@]4(O)[C@H]5Cc6ccc(O)c7c6[C@@]4(CCN5CC4CC4)[C@H]2O7)[C@@H]3O[C@]12CC[C@@]1(O)[C@H]3Cc4ccc(O)c5c4[C@@]1(CCN3CC1CC1)[C@H]2O5`, the Ki in experiment [1] is 0.0246 µM; in experiment [2], 0.0101 µM; at Mu-type opioid receptor it was 0.00398 µM. Moreover, the Ratio Ki in the experiment filed under Cavia porcellus was 6.2.

For the compound `Oc1ccc2c3c1O[C@H]1[C@]4(CC[C@H]5[C@@H](C2)N(CC2CC2)CC[C@@]351)O[C@@H]1N2[C@H]4O[C@]3(CC[C@H]4[C@H]5Cc6ccc(O)c7c6[C@@]4(CCN5CC4CC4)[C@H]3O7)[C@@H]2O[C@]12CC[C@H]1[C@H]3Cc4ccc(O)c5c4[C@@]1(CCN3CC1CC1)[C@H]2O5`, the Ki in experiment [1] came to 0.0537 µM; in experiment [2] it was 0.0432 µM; on Mu-type opioid receptor it was 0.0223 µM. In addition, the Ratio Ki in the experiment filed under Cavia porcellus worked out at 2.4.

As to `Oc1ccc2c3c1O[C@H]1[C@]4(CC[C@@]5(O)[C@@H](C2)N(CC2CC2)CC[C@]315)O[C@@H]1N2[C@H]4O[C@]3(CC[C@@]4(O)[C@H]5Cc6ccc(O)c7c6[C@@]4(CCN5CC4CC4)[C@H]3O7)[C@@H]2O[C@]12CC[C@@]1(O)[C@H]3Cc4ccc(O)c5c4[C@@]1(CCN3CC1CC1)[C@H]2O5`, the Ki worked out at 0.122 µM in experiment [1], 0.0221 µM in experiment [2] and 0.0222 µM at Mu-type opioid receptor. For the same compound, in the experiment filed under Cavia porcellus, the Ratio Ki came to 5.5.

With `CN1CC[C@]23c4c5ccc(O)c4O[C@H]2[C@]2(CC[C@@]3(O)[C@H]1C5)O[C@@H]1N3[C@H]2O[C@]2(CC[C@@]4(O)[C@H]5Cc6ccc(O)c7c6[C@@]4(CCN5C)[C@H]2O7)[C@@H]3O[C@]12CC[C@@]1(O)[C@H]3Cc4ccc(O)c5c4[C@@]1(CCN3C)[C@H]2O5`, the figures for the Ki (in experiment [1]; in experiment [2]; at Mu-type opioid receptor) were 0.0386 µM, 0.0161 µM and 0.00105 µM, respectively. Moreover, the “Ratio ED50” value in the experiment with Mus musculus [3] came to 16. In addition, the Activity result in the experiment on Mus musculus [4] is “Dose-dependent effect”. The ED50 in the experiment on Mus musculus [4] was found to be 0.037 mg/kg. The Ratio Ki in the experiment filed under Cavia porcellus is 36.8.

`O=C1CC[C@@]2(O)[C@H]3Cc4ccc(O)c5c4[C@@]2(CCN3CC2CC2)[C@H]1O5` [NALTREXONE]: the Ki in experiment [1] stood at 0.0207 µM.

As a reminder, the Ki is the equilibrium dissociation constant of an inhibitor or competing ligand from its target. The ED50 is the dose at which the effect has come halfway, by size or by number of responders.
